Here are results for six compounds from PMC4204381 (Computational and Structural Biotechnology Journal, 2014).

SMILES strings stand for the structures. Read-outs that look alike come from different tables or passages of the source.

Data set [1] relates to Male Sprague–Dawley rats. It counts as in vivo, rat. Particulars: p < 0.05; for Palmitoylcarnitine blood level vs control: Fig. 4B; for LysoPC(20:1) blood level vs control: Fig. 4C; for Oleoylcarnitine blood level vs control: Fig. 4A.
Data set [2] relates to patients. The following applies: cited from earlier work.
The test system of data set [3] is Male Sprague–Dawley rats. Kind of data set: Histopathology and tissue observations in rats after a single oral dose. Particulars: for hepatic vacuolization / hepatic necrosis: low and high doses, 6 or 24 h.
Data set [4] concerns Male Sprague–Dawley rats. Kind of data set: Clinical chemistry. Particulars: for clinical chemistry changes (ALT, AST, ALP): low dose, 6 or 24 h.

`O=C1CN(/N=C/c2ccc(-c3ccc([N+](=O)[O-])cc3)o2)C(O)=N1` [DAN, dantrolene]: the “Palmitoylcarnitine blood level vs control” value in data set [1] (6 h) is reported as “significantly increased”. Further, the “LysoPC(20:1) blood level vs control” value in data set [1] (24 h) was “significantly decreased”. In addition, the incidence of hepatotoxicity in data set [2] (patients) is given as 0.35%. Besides, the “hepatic vacuolization / hepatic necrosis” value in data set [3] was “neither hepatic vacuolization nor hepatic necrosis”.
On to `NC(=O)OCC(COC(N)=O)c1ccccc1` [FEL, felbamate], for which the “LysoPC(20:1) blood level vs control” value in data set [1] (6 h) and in data set [1] (24 h) was “significantly decreased” throughout. Moreover, the “Palmitoylcarnitine blood level vs control” value in data set [1] (24 h) is “appeared to be increased”. Moreover, the “hepatic vacuolization / hepatic necrosis” value in data set [3] was “neither hepatic vacuolization nor hepatic necrosis”. In addition, in data set [4], the “clinical chemistry changes (ALT, AST, ALP)” value was “did not have any clinical chemistry changes”.
Regarding `CN(C)C(=N)N=C(N)N` [MET, metformin], the “Oleoylcarnitine blood level vs control” value in data set [1] (6 h) is given as “significantly increased”. For the same compound, the “Taurocholic acid blood level vs control” value in data set [1] (6 h, Fig. 4D) is “significantly decreased”. In addition, the “cases of liver injury reported to be associated with MET” value in data set [2] (by 2012, concomitant intake of other potential hepatotoxicants) is below 10 cases. In data set [3], the “hepatic vacuolization / hepatic necrosis” value was “neither hepatic vacuolization nor hepatic necrosis”. The “ALT increase of ALT value in control group” value in data set [4] (6 h, high dose) was below 3 fold. Also, the “clinical chemistry changes (ALT, AST, ALP)” value in data set [4] is listed as “did not have any clinical chemistry changes”.
Take `CC(=O)Nc1ccc(O)cc1` [APAP, acetaminophen]: in data set [1] (6 h), the “Oleoylcarnitine blood level vs control” value is listed as “significantly increased”, the “Palmitoylcarnitine blood level vs control” value is “significantly increased” and the “LysoPC(20:1) blood level vs control” value is listed as “significantly decreased”. Also, in data set [1] (24 h), the “Oleoylcarnitine blood level vs control” value was “significantly increased”, the “Palmitoylcarnitine blood level vs control” value is “appeared to be increased” and the “LysoPC(20:1) blood level vs control” value is reported as “appeared to be decreased”.
For `Nc1c2c(nc3ccccc13)CCCC2` [tacrine], in data set [2] (human, in vivo), the “ALT increase with no liver cell injury” value was > 20 fold of the upper limit of normal.
In the case of `Cc1cnc(NC(=O)C2=C(O)c3ccccc3S(=O)(=O)N2C)s1` [MEL, meloxicam], the “Palmitoylcarnitine blood level vs control” value in data set [1] (6 h) is “significantly increased”. For the same compound, in data set [1] (24 h), the “LysoPC(20:1) blood level vs control” value is “appeared to be decreased”. For the same compound, the “hepatic vacuolization / hepatic necrosis” value in data set [3] is “neither hepatic vacuolization nor hepatic necrosis”. For the same compound, in data set [3] (rats treated with MEL for 24 h), the “inflammation in the capsule of kidney (incidence)” value is listed as 1 out of 5 and the “inflammation in the capsule of liver (incidence)” value is 2 out of 5. In data set [4] (24 h, high dose group), the “ALT increase of the ALT value of the control group” value is below 2 fold.
